Results taken from ChEMBL document CHEMBL1949522, “Acremostrictin, a highly oxygenated metabolite from the marine fungus Acremonium strictum” (J Nat Prod, 2011).
In brackets after ≈: the same amount, converted by molar mass. Activity calls are given as the source filed them. The calls are words filed in the database; no cut-off is given here.

Tests used:
[1] = system: Micrococcus luteus; assay: Antibacterial activity against Micrococcus luteus IFO 12708 after 24 hrs; type: functional; conditions: IFO 12708, 24 h
[2] = system: Salmonella typhimurium; assay: Antibacterial activity against Salmonella Typhimurium ATCC 14028 after 24 hrs; type: functional, Salmonella enterica subsp. enterica serovar Typhimurium; conditions: Salmonella enterica, ATCC 14028, 24 h
[3] = system: Proteus vulgaris; assay: Antibacterial activity against Proteus vulgaris ATCC 3851 after 24 hrs; type: functional; conditions: ATCC 3851, 24 h
[4] = system: Bacillus subtilis; assay: Antibacterial activity against Bacillus subtilis ATCC 6633 after 24 hrs; type: functional; conditions: ATCC 6633, 24 h
[5] = system: Staphylococcus aureus; assay: Antibacterial activity against Staphylococcus aureus ATCC 6538p after 24 hrs; type: functional
[6] = system: Escherichia coli; assay: Antibacterial activity against Escherichia coli ATCC 35270 after 24 hrs; type: functional; conditions: ATCC 35270, 24 h
[7] = system: K562; assay: Anticancer activity against human K562 cells; type: functional, cell-based
[8] = system: Radical scavenging activity; assay: Antioxidant activity assessed as DPPH radical-scavenging activity after 30 mins by spectrophotometric analysis; type: functional
[9] = system: HaCaT; assay: Antioxidant activity in human HaCaT cells assessed as inhibition of H2O2-induced cell death pretreated for 1 hr prior to H2O2 challenge measured after 24 hrs by spectrophotometric analysis; type: functional, cell-based

## CC1=C[C@@H]2C[C@]3(C)OC(=O)[C@@](O)([C@H]3C)[C@]2(O)C1=O (relative stereo)
[1]
  MIC: 50 µg/mL (≈ 198 µM)
[2]
  MIC: 50 µg/mL (≈ 198 µM)
[3]
  MIC: 12.5 µg/mL (≈ 49.6 µM)
[4]
  MIC: > 100 µg/mL
[5]
  MIC: > 100 µg/mL
[6]
  MIC: > 100 µg/mL
[7]
  Activity: inactive
[8]
  Activity: Dose-dependent effect
  IC50: 2100 µM
[9]
  inhibition: Dose-dependent effect
